The results in this text go back to ChEMBL document CHEMBL1255532, “Cytotoxic cycloartane triterpene and rare isomeric bisclerodane diterpenes from the leaves of Polyalthia longifolia var. pendula” (Bioorg Med Chem Lett, 2010).

Assay [1] concerns C-33-A. Description: Cytotoxicity against human C33A cells after 48 hrs by SRB assay. The assay is classed as functional, cell-based. On the technique in general: In SRB staining, fixed cells bind dye roughly in proportion to their protein.
The subject of assay [2] is KB. Description: Cytotoxicity against human KB cells after 48 hrs by SRB assay. It is filed as functional, cell-based.
Assay [3] can be described thus: Cytotoxicity against mouse NIH/3T3 cells after 48 hrs by SRB assay. The assay is classed as cell-based. The conditions noted are these: NIH3T3, 48 h.
Assay [4] relates to MCF7. Nature of the assay: Cytotoxicity against human MCF7 cells after 48 hrs by SRB assay. The following applies: MCF7, 48 h. The assay is classed as functional, cell-based.
The subject of assay [5] is A549. Description: Cytotoxicity against human A549 cells after 48 hrs by SRB assay. The assay is classed as functional, cell-based. The following applies: A549, 48 h.

≈ marks a conversion by molar mass, not a printed value.

Regarding `C=C(C(C)C)[C@@H](O)C[C@@H](C)[C@H]1[C@@H](O)C[C@@]2(C)[C@@H]3CC[C@H]4C(C)(C)[C@@H](O)CC[C@@]45C[C@@]35CC[C@]12C` [LONGITRIOL], the half-maximal inhibitory concentration (IC50) – broadly, the concentration that inhibits the measured activity by half – was 10 µg/mL (≈ 21.2 µM) in assay [1]; 24.1 µg/mL (≈ 51 µM) in assay [2]; over 50 µg/mL in assay [3]; 30.9 µg/mL (≈ 65.3 µM) in assay [4]; 13.2 µg/mL (≈ 27.9 µM) in assay [5].
On to `COc1cccc2c1C(=O)c1c(O)c3c(c(O)c1C2=O)C[C@@](O)(C(=O)CO)C[C@@H]3O[C@H]1C[C@H](N)[C@H](O)[C@H](C)O1` [DOXORUBICIN], for which the IC50 is 0.28 µg/mL (≈ 0.515 µM) in assay [1], 0.12 µg/mL (≈ 0.221 µM) in assay [2], 0.45 µg/mL (≈ 0.828 µM) in assay [4] and 0.33 µg/mL (≈ 0.607 µM) in assay [5].
On to `CC1=CCC[C@@H]2[C@@](C)(CCC3=CC(=O)N(/C=C(\CC[C@@]4(C)[C@H](C)CC[C@@]5(C)C(C)=CCC[C@H]45)CC(=O)O)C3=O)[C@H](C)CC[C@@]12C` [LONGIMIDE A], for which the concentration for half-maximal inhibition (IC50) in assay [1] is 4.12 µg/mL (≈ 6.67 µM); in assay [2], 8.85 µg/mL (≈ 14.3 µM); in assay [3] it was 44.7 µg/mL (≈ 72.3 µM); in assay [4], 9.23 µg/mL (≈ 14.9 µM); in assay [5] it was 10.1 µg/mL (≈ 16.4 µM).
